Results: ChEMBL document CHEMBL5120950, “Discovery and Mechanistic Study of Mycobacterium tuberculosis PafA Inhibitors” (J Med Chem, 2022)
Values after ≈ are worked out from the molar mass of the structure shown. Active and inactive are the calls of the source. The rule behind the calls is not given here.

Columns and labels:
[1] = biological target: T1, Pup--protein ligase (Mycobacterium tuberculosis) (UniProt P9WNU7); assay: Inhibition of Mycobacterium tuberculosis PafA expressed in Escherichia coli BL-21(DE3) assessed as inhibition of pup-ylation using Mtb PanB substrate at 20 uM by SDS-PAGE analysis
T1 sequence (whole entry): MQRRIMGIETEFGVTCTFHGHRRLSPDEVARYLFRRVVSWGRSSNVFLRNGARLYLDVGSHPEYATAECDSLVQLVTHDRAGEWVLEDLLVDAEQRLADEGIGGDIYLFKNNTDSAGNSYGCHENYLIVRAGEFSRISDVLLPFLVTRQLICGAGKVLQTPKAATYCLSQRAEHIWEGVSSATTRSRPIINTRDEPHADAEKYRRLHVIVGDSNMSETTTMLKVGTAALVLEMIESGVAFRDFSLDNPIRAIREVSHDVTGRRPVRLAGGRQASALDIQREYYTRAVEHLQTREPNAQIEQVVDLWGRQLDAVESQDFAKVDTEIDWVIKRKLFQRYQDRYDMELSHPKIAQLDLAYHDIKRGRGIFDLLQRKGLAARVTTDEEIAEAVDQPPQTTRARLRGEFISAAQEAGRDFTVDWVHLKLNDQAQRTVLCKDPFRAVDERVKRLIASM

[2] = test system: Mycobacterium tuberculosis; assay: Antimycobacterial activity against Mycobacterium tuberculosis H37Ra assessed as inhibition of growth measured after 7 days by microplate reader; type: functional; details: 168 h, time 7 day
Pup--protein ligase [3] = biological target: T2, Pup--protein ligase (Mycobacterium tuberculosis, UniProt P9WNU7); assay: Inhibition of Mycobacterium tuberculosis PafA expressed in Escherichia coli BL-21(DE3) assessed as inhibition of pup-ylation using Mtb PanB substrate by SDS-PAGE analysis
T2 sequence (P9WNU7 whole entry): T1 sequence (whole entry)

Pup--protein ligase [4] = biological target: T3, Pup--protein ligase (Corynebacterium glutamicum, UniProt Q8NQE1); assay: Activation of Corynebacterium glutamicum PafA expressed in Escherichia coli BL-21(DE3) assessed as pup-ylation using Mtb PanB substrate by SDS-PAGE analysis
T3 sequence (Q8NQE1 whole entry): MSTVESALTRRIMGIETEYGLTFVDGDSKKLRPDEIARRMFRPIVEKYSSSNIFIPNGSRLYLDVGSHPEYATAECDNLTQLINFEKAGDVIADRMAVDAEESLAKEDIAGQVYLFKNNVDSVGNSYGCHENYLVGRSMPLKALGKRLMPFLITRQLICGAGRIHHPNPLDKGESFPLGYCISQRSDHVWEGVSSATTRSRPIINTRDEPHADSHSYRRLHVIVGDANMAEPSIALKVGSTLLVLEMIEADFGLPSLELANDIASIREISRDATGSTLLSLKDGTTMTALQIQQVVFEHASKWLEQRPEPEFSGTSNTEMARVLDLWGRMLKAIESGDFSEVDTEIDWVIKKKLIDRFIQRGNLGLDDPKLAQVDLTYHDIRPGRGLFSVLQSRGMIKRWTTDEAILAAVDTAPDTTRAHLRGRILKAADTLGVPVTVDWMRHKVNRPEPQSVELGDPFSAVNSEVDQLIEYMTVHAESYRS

Pup--protein ligase [5] = biological target: T3, Pup--protein ligase; assay: Activation of Corynebacterium glutamicum PafA expressed in Escherichia coli BL-21(DE3) assessed as pup-ylation using Mtb KasA substrate by SDS-PAGE analysis
[6] = biological target: T1, Pup--protein ligase (Mycobacterium tuberculosis); assay: Activation of Mycobacterium tuberculosis PafA expressed in Escherichia coli BL-21(DE3) assessed as pup-ylation using Mtb PknB substrate at 20 uM by SDS-PAGE analysis; details: filed as activator
[7] = biological target: T1, Pup--protein ligase (Mycobacterium tuberculosis); assay: Activation of Mycobacterium tuberculosis PafA expressed in Escherichia coli BL-21(DE3) assessed as pup-ylation using Mtb InhA substrate at 20 uM by SDS-PAGE analysis; details: filed as activator
[8] = biological target: T1, Pup--protein ligase (Mycobacterium tuberculosis); assay: Activation of Mycobacterium tuberculosis PafA expressed in Escherichia coli BL-21(DE3) assessed as pup-ylation using Mtb DHFR substrate at 20 uM by SDS-PAGE analysis; details: filed as activator
[9] = biological target: T1, Pup--protein ligase (Mycobacterium tuberculosis); assay: Activation of Mycobacterium tuberculosis PafA expressed in Escherichia coli BL-21(DE3) assessed as pup-ylation using Mtb PanB substrate at 20 uM by SDS-PAGE analysis; details: filed as activator
[10] = biological target: T1, Pup--protein ligase (Mycobacterium tuberculosis); assay: Activation of Mycobacterium tuberculosis PafA expressed in Escherichia coli BL-21(DE3) assessed as pup-ylation using Mtb KasA substrate at 20 uM by SDS-PAGE analysis; details: filed as activator
[11] = biological target: T4, Pup--protein ligase (Corynebacterium glutamicum) (UniProt Q8NQE1); assay: Inhibition of Corynebacterium glutamicum PafA expressed in Escherichia coli BL-21(DE3) assessed as inhibition of pup-ylation using Mtb PanB substrate at 20 uM by SDS-PAGE analysis
T4 sequence (whole entry): T3 sequence (Q8NQE1 whole entry)

[12] = biological target: T1, Pup--protein ligase (Mycobacterium tuberculosis); assay: Inhibition of Mycobacterium tuberculosis PafA expressed in Escherichia coli BL-21(DE3) assessed as inhibition of pup-ylation using Mtb KasA substrate at 20 uM by SDS-PAGE analysis
[13] = biological target: T1, Pup--protein ligase (Mycobacterium tuberculosis); assay: Binding affinity to Mycobacterium tuberculosis PafA expressed in Escherichia coli BL-21(DE3) assessed as increase in thermal stability at 40 uM incubated for 15 mins at 25 degC followed by incubated at 52 to 72 degC for 5 mins by CESTA analysis
[14] = biological target: T1, Pup--protein ligase (Mycobacterium tuberculosis); assay: Inhibition of Mycobacterium tuberculosis PafA expressed in Escherichia coli BL-21(DE3) assessed as inhibition of pup-ylation using Mtb PknB substrate at 20 uM by SDS-PAGE analysis
[15] = biological target: T1, Pup--protein ligase (Mycobacterium tuberculosis); assay: Inhibition of Mycobacterium tuberculosis PafA expressed in Escherichia coli BL-21(DE3) assessed as inhibition of pup-ylation using Mtb DHFR substrate at 20 uM by SDS-PAGE analysis
[16] = biological target: T1, Pup--protein ligase (Mycobacterium tuberculosis); assay: Binding affinity to Mycobacterium tuberculosis PafA expressed in Escherichia coli BL-21(DE3) assessed as increase in thermal stability by measuring change in melting temperature in at 50 uM by CESTA analysis
[17] = biological target: T1, Pup--protein ligase (Mycobacterium tuberculosis); assay: Inhibition of Mycobacterium tuberculosis PafA expressed in Escherichia coli BL-21(DE3) assessed as inhibition of pup-ylation using Mtb InhA substrate at 20 uM by SDS-PAGE analysis

For `Oc1ccccc1Sc1cc(Cl)cc(Cl)c1Cl`, the inhibition [1] was “Active”.
In the case of `Oc1c(Cl)cc(Cl)cc1Sc1cc(Cl)cc(Cl)c1O` [BITHIONOL], the inhibition [1] is reported as “Active”, the MIC90 [2] is reported as 89.9 µM (≈ 32 µg/mL) and the IC50 (Pup--protein ligase [3]) is reported as 15.9 µM.
In the case of `Oc1ccccc1Sc1cc(Cl)cc(Cl)c1`, the inhibition [1] is reported as “Active”.
`COCCn1c2c([n+](Cc3cnccn3)c1C)C(=O)c1ccccc1C2=O` [SEPANTRONIUM] was tested, and the EC50 (Pup--protein ligase [4]) was 1.7 µM and the EC50 (Pup--protein ligase [5]) was 2 µM.
`COCC[n+]1c2c(n(Cc3cnccn3)c1C)C(=O)c1ccccc1C2=O` was tested, and the Activity [6] was “Active”, the Activity [7] was “Active” and the Activity [8] was “Active”. The Activity [9] was “Active” and the Activity [10] was “Active”.
For `O=C(O)/C=C/c1ccc(-c2ccc(O)c(C34CC5CC(CC(C5)C3)C4)c2)cc1` [ADAROTENE], the inhibition [11] was “Active”, the inhibition [12] was “Active” and the Activity [13] was “Active”. For the same compound, the inhibition [14] was “Active”, the inhibition [1] was “Active” and the inhibition [15] was “Active”. For the same compound, the ΔTm [16] was 2.5 °C, the MIC90 [2] was 164 µM (≈ 61.4 µg/mL) and the inhibition [17] was “Active”. It also gave an IC50 (Pup--protein ligase [3]) of 17.9 µM.
For `Oc1ccc(Cl)cc1Sc1cc(Cl)cc(Cl)c1`, the inhibition [1] was “Active”.
